Results published in ChEMBL document CHEMBL6078640, “Trivalent oleanolic acid-glucose conjugates: Synthesis and efficacy against Influenza A virus” (Eur J Med Chem, 2024).
pIC50: −log10 of the molar value. The source made the active and inactive calls. No cut-off for these calls is given here.

How the values were obtained:
MDCK [1] = assay: Cytotoxicity against dog MDCK cells assessed as reduction in cell viability at 100 uM incubated for 40 hrs by celltiter-glo assay; assay type: toxicity, cell-based, Canis lupus familiaris
Influenza A virus [2] = assay: Antiviral activity against Influenza A virus H1N1 infected in MDCK cells assessed as inhibition of viral growth at 100 uM relative to control; assay type: functional
Influenza A virus [3] = assay: Antiviral activity against influenza A virus A/WSN/33(H1N1) infected in MDCK cells assessed as inhibition of viral-induced cytopathic effect pretreated with cells followed by viral infection and measured after 40 hrs by fluorescence based microplate reader analysis; assay type: functional, organism-based
[4] = Cytotoxicity against dog MDCK cells assessed as reduction in cell viability incubated for 40 hrs by celltiter-glo assay; assay type: toxicity, cell-based, Canis lupus familiaris
[5] = Selectivity index, ratio of CC50 for dog MDCK cells to IC50 for influenza A virus A/WSN/33(H1N1) infected in MDCK cells; assay type: toxicity, cell-based; conditions: read-out: Selectivity Index
Influenza A virus [6] = assay: Antiviral activity against Influenza A virus A/WSN/33(H1N1) infected in female BALB/c kunming mouse assessed as reduction in lung index at 12.5 mg/kg/day, administered intranasally once per day for 7 days starting from 24 hrs post-viral infection and measured daily; assay type: functional; conditions: time 7 day
Influenza A virus [7] = assay: Antiviral activity against Influenza A virus A/WSN/33(H1N1) infected in female BALB/c kunming mouse assessed as reduction in severe pneumonia at 10 mg/kg/day, administered intranasally once per day for 7 days starting from 24 hrs post-viral infection and measured daily; assay type: functional, organism-based; conditions: time 7.0 day
Influenza A virus [8] = assay: Antiviral activity against Influenza A virus A/WSN/33(H1N1) infected in female BALB/c kunming mouse assessed as reduction in immune cell infiltration at 10 mg/kg/day, administered intranasally once per day for 7 days starting from 24 hrs post-viral infection and measured daily; assay type: functional, organism-based; conditions: time 7.0 day
Influenza A virus [9] = assay: Antiviral activity against Influenza A virus H1N1 infected in MDCK cells assessed as reduction in cytopathic effect at 100 uM pretreated with cells followed by viral infection and measured after 40 hrs by fluorescence based microplate reader analysis; assay type: functional, organism-based
Influenza A virus [10] = assay: Antiviral activity against Influenza A virus H1N1 (A/Guangdong maonan/6WL197/2020); assay type: functional, organism-based
Influenza B virus = assay: Antiviral activity against Influenza B virus […] (B/Darwin/58/2019/Yamagata); assay type: functional, organism-based
Influenza A virus [11] = assay: Antiviral activity against Influenza A virus H5N1 (A/Indonesia/5/2005 (IBCDC-RG2)); assay type: functional, organism-based
Influenza A virus [12] = assay: Antiviral activity against influenza A virus A/WSN/33 (H1N1) in MDCK cells assessed as reduction in M2 expression preincubated with cells at 24 hrs followed by compound addition and measured at 0 to 2 hrs post infection by time of addition assay; assay type: functional, organism-based; conditions: time 0-2 hrs
Influenza A virus [13] = assay: Antiviral activity against influenza A virus A/WSN/33 (H1N1) in MDCK cells assessed as reduction in NP expression preincubated with cells at 24 hrs followed by compound addition and measured at 0 to 2 hrs post infection by time of addition assay; assay type: functional, organism-based; conditions: time 0-2 hrs
Influenza A virus [14] = assay: Antiviral activity against influenza A virus A/WSN/33 (H1N1) in MDCK cells assessed as reduction in M2 expression preincubated with cells at 24 hrs followed by compound addition and measured at 0 to 10 hrs post infection by time of addition assay; assay type: functional, organism-based; conditions: time 0-10 hrs
Influenza A virus [15] = assay: Antiviral activity against influenza A virus A/WSN/33 (H1N1) in MDCK cells assessed as reduction in NP expression preincubated with cells at 24 hrs followed by compound addition and measured at 0 to 10 hrs post infection by time of addition assay; assay type: functional, organism-based; conditions: time 0-10 hrs
Influenza A virus [16] = assay: Antiviral activity against influenza A virus A/WSN/33 (H1N1) in MDCK cells assessed as reduction in NP mRNA level preincubated with cells at 24 hrs followed by compound addition and measured at 0 to 2 hrs post infection by RT-qPCR analysis; assay type: functional, organism-based; conditions: time 0-2 hrs
Influenza A virus [17] = assay: Antiviral activity against influenza A virus A/WSN/33 (H1N1) in MDCK cells assessed as reduction in M mRNA level preincubated with cells at 24 hrs followed by compound addition and measured at 0 to 2 hrs post infection by RT-qPCR analysis; assay type: functional, organism-based; conditions: time 0-2 hrs
Influenza A virus [18] = assay: Antiviral activity against influenza A virus A/WSN/33 (H1N1) in MDCK cells assessed as reduction in NP mRNA level preincubated with cells at 24 hrs followed by compound addition and measured at 0 to 10 hrs post infection by RT-qPCR analysis; assay type: functional, organism-based; conditions: time 0-10 hrs
Influenza A virus [19] = assay: Antiviral activity against influenza A virus A/WSN/33 (H1N1) in MDCK cells assessed as reduction in M mRNA level preincubated with cells at 24 hrs followed by compound addition and measured at 0 to 10 hrs post infection by RT-qPCR analysis; assay type: functional, organism-based; conditions: time 0-10 hrs
MDCK [20] = assay: Inhibition of Hemagglutinin in Influenza A virus H1N1 assessed as inhibition of virus-induced aggregation of chicken erythrocytes pretreated with virus followed by chicken RBC addition and measured after 30 mins by Hemagglutinin inhibition assay; assay type: cell-based; conditions: dose 0-1.94 µM
Influenza A virus [21] = assay: Antiviral activity against Influenza A virus A/WSN/33(H1N1) infected in female BALB/c kunming mouse assessed as improvement in body weight administered intranasally once per day for 7 days and measured daily; assay type: functional, organism-based; conditions: dose 6.25-12.5 mg/kg/day, time 7.0 day
Influenza A virus [22] = assay: Antiviral activity against Influenza A virus A/WSN/33(H1N1) infected in female BALB/c kunming mouse assessed as delayed the median time of animal death at 0.125 mg/kg, administered intranasally once per day for 7 days starting from 24 hrs post-viral infection and measured daily; assay type: functional, organism-based; conditions: time 7.0 day
Influenza A virus [23] = assay: Antiviral activity against Influenza A virus A/WSN/33(H1N1) infected in female BALB/c kunming mouse assessed as protection of mouse at 0.25 mg/kg, administered intranasally once per day for 7 days starting from 24 hrs post-viral infection and measured daily; assay type: functional, organism-based; conditions: time 7.0 day
Influenza A virus [24] = assay: Antiviral activity against Influenza A virus A/WSN/33(H1N1) infected in female BALB/c kunming mouse assessed as reduction in lung index at 6.25 mg/kg/day, administered intranasally once per day for 7 days starting from 24 hrs post-viral infection and measured daily; assay type: functional; conditions: time 7 day
Influenza A virus [25] = assay: Antiviral activity against Influenza A virus A/WSN/33(H1N1) infected in female BALB/c kunming mouse assessed as reduction in severe pneumonia at 12.5 mg/kg/day, administered intranasally once per day for 7 days starting from 24 hrs post-viral infection and measured daily; assay type: functional, organism-based; conditions: time 7.0 day
Influenza A virus [26] = assay: Antiviral activity against Influenza A virus A/WSN/33(H1N1) infected in female BALB/c kunming mouse assessed as reduction in immune cell infiltration at 12.5 mg/kg/day, administered intranasally once per day for 7 days starting from 24 hrs post-viral infection and measured daily; assay type: functional, organism-based; conditions: time 7.0 day
[27] = Toxicity in female BALB/c kunming mouse infected with Influenza A virus A/WSN/33(H1N1) assessed as reduction in liver injury at 6.25 to 12.5 mg/kg/day, administered intranasally once per day for 7 days starting from 24 hrs post-viral infection by H and E staining based analysis; assay type: organism-based; conditions: in vivo, inhaled_or_intranasal, 168 h, dose 6.25-12.5 mg/kg/day, time 7 day
[28] = Toxicity in female BALB/c kunming mouse infected with Influenza A virus A/WSN/33(H1N1) assessed as reduction in kidney injury at 6.25 to 12.5 mg/kg/day, administered intranasally once per day for 7 days starting from 24 hrs post-viral infection by H and E staining based analysis; assay type: organism-based; conditions: in vivo, inhaled_or_intranasal, 168 h, dose 6.25-12.5 mg/kg/day, time 7 day

## CC1(C)CC[C@]2(C(=O)NCc3cn([C@@H]4O[C@H](CO)[C@@H](O)[C@H](O)[C@H]4O)nn3)CC[C@]3(C)C(=CC[C@@H]4[C@@]5(C)CC[C@H](O)C(C)(C)[C@@H]5CC[C@]43C)[C@@H]2C1
MDCK [1]
  Activity: Non-toxic
Influenza A virus [2]
  inhibition at 100 µM: > 75%
Influenza A virus [3]
  pIC50: 5.87
[4]
  CC50 at 40 h: > 100 µM
[5]
  selectivity ratio: > 73.5
Influenza A virus [6]
  Activity_index: 1.4
Influenza A virus [7]
  Activity: Active
Influenza A virus [8]
  Activity: Active

## CC1(C)CC[C@]2(C(=O)NCc3cn([C@@H]4O[C@H](CO)[C@@H](O)[C@H](O)[C@H]4O)nn3)CC[C@]3(C)C(=CC[C@@H]4[C@@]5(C)CC[C@H](OC(=O)NCc6cn(Cc7cc(Cn8cc(CNC(=O)O[C@H]9CC[C@]%10(C)[C@H]%11CC=C%12[C@@H]%13CC(C)(C)CC[C@]%13(C(=O)NCc%13cn([C@@H]%14O[C@H](CO)[C@@H](O)[C@H](O)[C@H]%14O)nn%13)CC[C@@]%12(C)[C@]%11(C)CC[C@H]%10C9(C)C)nn8)cc(Cn8cc(CNC(=O)O[C@H]9CC[C@]%10(C)[C@H]%11CC=C%12[C@@H]%13CC(C)(C)CC[C@]%13(C(=O)NCc%13cn([C@@H]%14O[C@H](CO)[C@@H](O)[C@H](O)[C@H]%14O)nn%13)CC[C@@]%12(C)[C@]%11(C)CC[C@H]%10C9(C)C)nn8)c7)nn6)C(C)(C)[C@@H]5CC[C@]43C)[C@@H]2C1
Influenza A virus [9]
  Activity: Active
MDCK [1]
  Activity: Non-toxic
Influenza A virus [2]
  inhibition at 100 µM: > 75%
Influenza A virus [3]
  pIC50: 6.33
[4]
  CC50 at 40 h: > 100 µM
[5]
  selectivity ratio: > 213
Influenza A virus [10]
  pIC50: 5.28
Influenza B virus
  pIC50: 5.62
Influenza A virus [11]
  Activity: inactive
Influenza A virus [12]
  Activity: Active; Compound Exerts Antiviral Effect At Early Stage Of Infection
Influenza A virus [13]
  Activity: Active; Compound Exerts Antiviral Effect At Early Stage Of Infection
Influenza A virus [14]
  Activity: Active; Compound Exerts Antiviral Effect At Early Stage Of Infection
Influenza A virus [15]
  Activity: Active; Compound Exerts Antiviral Effect At Early Stage Of Infection
Influenza A virus [16]
  Activity: Active; Compound Exerts Antiviral Effect At Early Stage Of Infection
Influenza A virus [17]
  Activity: Active; Compound Exerts Antiviral Effect At Early Stage Of Infection
Influenza A virus [18]
  Activity: Active; Compound Exerts Antiviral Effect At Early Stage Of Infection
Influenza A virus [19]
  Activity: Active; Compound Exerts Antiviral Effect At Early Stage Of Infection
MDCK [20]
  inhibition: Dose-dependent-effect
Influenza A virus [21]
  Activity: Dose-dependent-effect
Influenza A virus [22]
  Activity: Active
Influenza A virus [23]
  Activity: Active; Protection In 2 Out Of 4 Mouse Was Observed
Influenza A virus [24]
  Activity_index: 1.7
Influenza A virus [6]
  Activity_index: 1.4
Influenza A virus [25]
  Activity: Active
Influenza A virus [26]
  Activity: Active
[27]
  Activity: Non-toxic
[28]
  Activity: Non-toxic

## CC(=O)OC[C@H]1O[C@@H](n2cc(CNC(=O)[C@]34CCC(C)(C)C[C@H]3C3=CC[C@@H]5[C@@]6(C)CC[C@H](OC(=O)NCCCc7cn(CC(CO)(Cn8cc(CCCNC(=O)O[C@H]9CC[C@]%10(C)[C@H]%11CC=C%12[C@@H]%13CC(C)(C)CC[C@]%13(C(=O)NCc%13cn([C@@H]%14O[C@H](COC(C)=O)[C@@H](OC(C)=O)[C@H](OC(C)=O)[C@H]%14OC(C)=O)nn%13)CC[C@@]%12(C)[C@]%11(C)CC[C@H]%10C9(C)C)nn8)Cn8cc(CCCNC(=O)O[C@H]9CC[C@]%10(C)[C@H]%11CC=C%12[C@@H]%13CC(C)(C)CC[C@]%13(C(=O)NCc%13cn([C@@H]%14O[C@H](COC(C)=O)[C@@H](OC(C)=O)[C@H](OC(C)=O)[C@H]%14OC(C)=O)nn%13)CC[C@@]%12(C)[C@]%11(C)CC[C@H]%10C9(C)C)nn8)nn7)C(C)(C)[C@@H]6CC[C@@]5(C)[C@]3(C)CC4)nn2)[C@H](OC(C)=O)[C@@H](OC(C)=O)[C@@H]1OC(C)=O
MDCK [1]
  Activity: Non-toxic
Influenza A virus [2]
  inhibition at 100 µM: > 75%
Influenza A virus [3]
  pIC50: 5.34
[4]
  CC50 at 40 h: > 100 µM
[5]
  selectivity ratio: > 21.7
